{"source": "patent US20170172905A1", "about": "“AGENT FOR TEMPORARILY RESHAPING KERATIN-CONTAINING FIBERS COMPRISING PRESERVATIVE” (Henkel AG & Co. KGaA, priority 2015, published 2017)", "origin": "cited, not measured here", "data": [{"smiles": "CCCCC(CC)CN1CN(CC(CC)CCCC)CC(C)(N)C1", "note": "(stereo not shown) [hexetidine, 5-amino-1,3-bis(2-ethylhexal)hexahydro-5-methylpyrimidine]", "values": [{"measurement": "logP value", "result": 5.25}]}]}
